Experiments:
[1] = Liquid; for mass density: 101.33 kPa, Pycnometric method; for vapor or sublimation pressure: Langmuir
[2] = wn = mass fraction of the nth substance listed; conditions: 98 kPa, Liquid, Capillary tube (Ostwald / Ubbelohde) method
[3] = xn = mol fraction of the nth substance listed; conditions: 98 kPa, Liquid, magnetic suspension balance, x2 = 0.55

COP(=O)([O-])OC.Cn1cc[n+](C)c1 [1,3-dimethylimidazolium dimethylphosphate]
[1]
Conditions	mass density [kg/m3]
293.2 K	1260
303.2 K	1253
313.2 K	1246
323.2 K	1239
333.2 K	1232
343.2 K	1225
353.2 K	1218
363.2 K	1211

COP(=O)([O-])OC.Cn1cc[n+](C)c1 [1,3-dimethylimidazolium dimethylphosphate] + O
kinematic viscosity [m2/s], [2]
Conditions	w2 = 0.0031	w2 = 0.0085	w2 = 0.019	w2 = 0.0237	w2 = 0.0341	w2 = 0.0493	w2 = 0.0587	w2 = 0.0655
303.2 K	0.000137	0.000128	0.000114	0.000107	9.53e-05	7.95e-05	7.22e-05	6.73e-05
313.2 K	7.79e-05	7.35e-05	6.62e-05	6.27e-05	5.63e-05	4.77e-05	4.37e-05	4.09e-05
323.2 K	4.84e-05	4.59e-05	4.18e-05	3.98e-05	3.6e-05	3.09e-05	2.85e-05	2.68e-05
333.2 K	3.22e-05	3.07e-05	2.81e-05	2.69e-05	2.45e-05	2.13e-05	1.97e-05	1.86e-05
343.2 K	2.27e-05	2.17e-05	2e-05	1.92e-05	1.75e-05	1.53e-05	1.43e-05	1.35e-05
353.2 K	1.67e-05	1.6e-05	1.48e-05	1.42e-05	1.31e-05	1.15e-05	1.07e-05	1.02e-05
363.2 K	1.27e-05	1.22e-05	1.17e-05	1.09e-05	1.01e-05	8.9e-06	8.5e-06	8e-06

CCCCn1cc[n+](C)c1.F[B-](F)(F)F [1-butyl-3-methylimidazolium tetrafluoroborate]
[1]
Conditions	vapor or sublimation pressure [kPa]
396.3 K	7.2e-10
403.7 K	9.9e-10
412.1 K	2.3e-09
413.6 K	1.8e-09
415.4 K	2.8e-09
421.6 K	4.3e-09
424.9 K	6.3e-09
437.3 K	1.9e-08
437.6 K	1.5e-08
446.4 K	3.7e-08
447.3 K	4e-08
447.7 K	3.9e-08
457.2 K	8.3e-08
457.5 K	8.7e-08
464.7 K	1.5e-07
465 K	1.7e-07
465.5 K	1.6e-07

CCCCn1cc[n+](C)c1.F[B-](F)(F)F [1-butyl-3-methylimidazolium tetrafluoroborate] + O
kinematic viscosity [m2/s], [2]
Conditions	w2 = 0.0033	w2 = 0.0097	w2 = 0.0181	w2 = 0.0258	w2 = 0.0345	w2 = 0.0488	w2 = 0.0552	w2 = 0.066
303.2 K	5.78e-05	4.53e-05	3.44e-05	2.89e-05	2.26e-05	1.64e-05	1.52e-05	1.39e-05
313.2 K	3.76e-05	3.02e-05	2.37e-05	2.02e-05	1.62e-05	1.2e-05	1.12e-05	1.02e-05
323.2 K	2.59e-05	2.14e-05	1.73e-05	1.48e-05	1.22e-05	9.2e-06	8.6e-06	7.9e-06
333.2 K	1.86e-05	1.54e-05	1.28e-05	1.13e-05	9.4e-06	7.2e-06	6.8e-06	6.2e-06
343.2 K	1.39e-05	1.21e-05	1e-05	8.8e-06	7.5e-06	5.9e-06	5.5e-06	5.1e-06
353.2 K	1.08e-05	9.8e-06	8e-06	7.2e-06	6.2e-06	4.9e-06	4.6e-06	4.2e-06
363.2 K	8.6e-06	7.7e-06	6.5e-06	5.8e-06	5.1e-06	4.1e-06	3.9e-06	3.6e-06

CCOCCOCCOS(=O)(=O)[O-].CCn1cc[n+](C)c1 [1-ethyl-3-methylimidazolium 2-(2-ethoxyethoxy)ethylsulfate]
[1]
Conditions	mass density [kg/m3]	vapor or sublimation pressure [kPa]
293.2 K	1215	–
303.2 K	1207	–
313.2 K	1200	–
323.2 K	1193	–
333.2 K	1185	–
343.2 K	1178	–
353.2 K	1170	–
363.2 K	1164	–
419.7 K	–	3.4e-09
429 K	–	3.8e-09
430.1 K	–	5.6e-09
430.7 K	–	4.9e-09
436.4 K	–	1.3e-08
438.3 K	–	8.7e-09
438.4 K	–	1.1e-08
438.5 K	–	1.1e-08
440.2 K	–	1.4e-08
445.7 K	–	2.6e-08
445.8 K	–	2.5e-08
448.1 K	–	2.1e-08

CCOCCOCCOS(=O)(=O)[O-].CCn1cc[n+](C)c1 [1-ethyl-3-methylimidazolium 2-(2-ethoxyethoxy)ethylsulfate] + O
kinematic viscosity [m2/s], [2]
Conditions	w2 = 0.0019	w2 = 0.0085	w2 = 0.0195	w2 = 0.0251	w2 = 0.0353	w2 = 0.0495	w2 = 0.0569	w2 = 0.0663
303.2 K	0.000128	0.000103	7.64e-05	6.69e-05	5.26e-05	4.17e-05	3.84e-05	3.34e-05
313.2 K	7.46e-05	6.17e-05	4.74e-05	4.22e-05	3.38e-05	2.73e-05	2.52e-05	2.24e-05
323.2 K	4.76e-05	4.02e-05	3.17e-05	2.83e-05	2.31e-05	1.92e-05	1.76e-05	1.58e-05
333.2 K	3.23e-05	2.78e-05	2.23e-05	2.02e-05	1.67e-05	1.41e-05	1.29e-05	1.18e-05
343.2 K	2.32e-05	2.02e-05	1.65e-05	1.51e-05	1.26e-05	1.08e-05	9.8e-06	9.1e-06
353.2 K	1.81e-05	1.53e-05	1.26e-05	1.17e-05	9.9e-06	8.5e-06	7.8e-06	7.3e-06
363.2 K	1.34e-05	1.16e-05	1e-05	9.3e-06	7.9e-06	6.9e-06	6.3e-06	5.9e-06

CCOS(=O)(=O)[O-].CCn1cc[n+](C)c1 [1-ethyl-3-methylimidazolium ethyl sulfate] + O
kinematic viscosity [m2/s], [2]
Conditions	w2 = 0.0038	w2 = 0.009	w2 = 0.0164	w2 = 0.0239	w2 = 0.0359	w2 = 0.0483	w2 = 0.0563	w2 = 0.066
303.2 K	5.5e-05	5.06e-05	4.43e-05	4.03e-05	3.57e-05	3.26e-05	3.13e-05	2.99e-05
313.2 K	3.74e-05	3.56e-05	3.11e-05	2.86e-05	2.51e-05	2.3e-05	2.21e-05	2.11e-05
323.2 K	2.69e-05	2.63e-05	2.34e-05	2.17e-05	1.99e-05	1.69e-05	1.63e-05	1.55e-05
333.2 K	2.01e-05	1.9e-05	1.8e-05	1.67e-05	1.52e-05	1.31e-05	1.24e-05	1.18e-05
343.2 K	1.54e-05	1.49e-05	1.41e-05	1.35e-05	1.21e-05	1.05e-05	9.8e-06	9.3e-06
353.2 K	1.21e-05	1.17e-05	1.13e-05	1.11e-05	1.01e-05	9e-06	8.1e-06	7.6e-06
363.2 K	9.8e-06	9.4e-06	9.1e-06	8.8e-06	8.4e-06	8e-06	7e-06	6.5e-06

CCn1cc[n+](C)c1.CS(=O)(=O)[O-] [1-ethyl-3-methylimidazolium methanesulfonate]
[1]
Conditions	mass density [kg/m3]
293.2 K	1244
303.2 K	1237
313.2 K	1230
323.2 K	1223
333.2 K	1217
343.2 K	1212
353.2 K	1205
363.2 K	1198

CCn1cc[n+](C)c1.CS(=O)(=O)[O-] [1-ethyl-3-methylimidazolium methanesulfonate] + O
kinematic viscosity [m2/s], [2]
Conditions	w2 = 0.0024	w2 = 0.0028	w2 = 0.01	w2 = 0.0191	w2 = 0.0254	w2 = 0.0323	w2 = 0.0358	w2 = 0.047	w2 = 0.0589	w2 = 0.0615
303.2 K	9.34e-05	9.45e-05	7.58e-05	6.2e-05	5.53e-05	4.69e-05	4.51e-05	3.69e-05	3.06e-05	2.95e-05
313.2 K	5.57e-05	5.64e-05	4.66e-05	3.91e-05	3.5e-05	3.06e-05	2.96e-05	2.48e-05	2.09e-05	2.02e-05
323.2 K	3.74e-05	3.65e-05	3.23e-05	2.65e-05	2.39e-05	2.1e-05	2.09e-05	1.77e-05	1.49e-05	1.46e-05
333.2 K	2.57e-05	–	2.26e-05	–	1.76e-05	–	1.53e-05	1.31e-05	–	1.11e-05
343.2 K	1.86e-05	–	1.66e-05	–	1.32e-05	–	1.16e-05	1.01e-05	–	8.5e-06
353.2 K	1.39e-05	–	1.24e-05	–	1.02e-05	–	9.1e-06	8e-06	–	6.8e-06
363.2 K	1.09e-05	–	9.7e-06	–	8.1e-06	–	7.3e-06	6.5e-06	–	5.6e-06

[3]
Conditions	binary diffusion coefficient [m2/s]
303.2 K	2.1e-10
313.2 K	3.1e-10
333.2 K	5.35e-10
353.2 K	8.3e-10
373.2 K	1.17e-09
